Source: patent US6747045B2, “(Benzodioxan, benzofuran or benzopyran) derivatives having fundic relaxation properties” (Janssen Pharmaceutica N.V., priority 1997, dated 2004)

What was measured:
[1] = system: fundus of the stomach; experiment: Gastric tone measured by an electronic barostat in conscious dogs; assay type: in vivo; conditions: conscious female beagle dogs; 0.63 mg/kg s.c.; 1 hour after administration of the test compound
Procedure: C.1. Gastric Tone Measured by an Electronic Barostat in Conscious Dogs
Gastric tone cannot be measured by manometric methods. Therefore an electronic barostat was used. This allows the study of the physiological pattern and regulation of gastric tone in conscious dogs and the influence of test-compounds on this tone.
The barostat consists of an air injection system which is connected by a double-lumen 14-French polyvinyl tube to an ultrathin flaccid polyethylene bag (maximal volume: ±700 ml). Variations in gastric tone were measured by recording changes in the volume of air within an intragastric bag, maintained at a constant pressure, or at varying pressure levels. The barostat maintains a constant pressure (preselected) within a flaccid air-filled bag introduced into the stomach, changing the volume of air within the bag by an electronic feedback system.
Thus, the barostat measures gastric motor activity (contraction or relaxation) as changes in intragastric volume (decrease or increase resp.) at a constant intragastric pressure. The barostat consists of a strain gauge linked by an electronic relay to an air injection-aspiration system. Both the strain gauge and the injection system are connected by means of double-lumen polyvinyl tube to an ultrathin polyethylene bag. A dial in the barostat allows selection of the pressure level to be maintained within the intragastric bag.
Female beagle dogs, weighing 7-17 kg, were trained to stand quietly in Pavlov frames. They were implanted with a gastric cannula under general anaesthesia and aseptic precautions. After a median laparotomy, an incision was made through the gastric wall in longitudinal direction between the greater and the lesser curve, 2 cm above the nerves of Latarjet. The cannula was secured to the gastric wall by means of a double purse string suture and brought out via a stub wound at the left quadrant of the hypochondrium. Dogs were allowed a recovery period of two weeks.
At the beginning of the experiment, the cannula was opened in order to remove any gastric juice or food remnants. If necessary, the stomach was cleansed with 40 to 50 ml lukewarm water. The ultrathin bag of the barostat was positioned into the fundus of the stomach through the gastric cannula. In order to ensure easy unfolding of the intragastric bag during the experiment, a volume of 150-200 ml was injected into the bag by raising the pressure to maximally 14 mm Hg (about 1.87 kPa) very briefly. This procedure was repeated twice. A stabilisation period of 1 hour was allowed. […]

[2] = system: basilar arteries; experiment: Vasoconstrictive activity on basilar artery; design: species or system pigs; conditions: Sus scrofa; pig basilar artery segments, organ bath; response relative to serotonin 3×10^−7 M; estimated from three preparations; read-out: ED50-value (concentration causing 50% of the constrictive response obtained with serotonin)
Procedure: C.2 Vasoconstrictive Activity on Basilar Artery
Segments of basilar arteries taken from pigs (anaesthetised with sodium pentobarbital) were mounted for recording of isometric tension in organ baths. The preparations were bathed in Krebs-Henseleit solution. The solution was kept at 37° C. and gassed with a mixture of 95% O2-5% CO2. The preparations were stretched until a stable basal tensions of 2 grams was obtained.
The preparations were made to constrict with serotonin (3×10^−7 M). The response to the addition of serotonin was measured and subsequently the serotonin was washed away. This procedure was repeated until stable responses were obtained. Subsequently the test compound was administered to the organ bath and the constriction of the preparation was measured. This constrictive response was expressed as a percentage of the response to serotonin as measured previously.

| Compound | EC50 [2] [nM] | melting point [°C] | % effect (percentual effect on relaxation of the fundus) [1] [%] |
| --- | --- | --- | --- |
| O=C(O)C(=O)O.O=C1NCCCN1CCCNC[C@H]1CCc2ccccc2O1 [Compound 3, (R)-1-[3-[[(3,4-dihydro-2H-1-benzopyran-2-yl)methyl]amino]propyl]-tetrahydro-2(1H)-pyrimidinone ethanedioate (1:1)] | > 1000 |  | 36.2 |
| N#CNc1nccn1C1CCN(CC2CCc3ccccc3O2)CC1 (stereo not drawn) [Compound 59, [1-[1-[(3,4-dihydro-2H-1-benzopyran-2-yl)methyl]-4-piperidinyl]1H-imidazol-2-yl]cyanamide] | > 1000 |  |  |
| (RR,SS)-1-[1-[2-(3,4-dihydro-2H-1-benzopyran-2-yl)-2-hydroxyethyl]-4-piperidinyl]-2-imidazolidinone [Compound 20] |  |  | 9.5 |

Second part, led by results:

| EC50 [2] [nM] | melting point [°C] | Compound | % effect (percentual effect on relaxation of the fundus) [1] [%] |
| --- | --- | --- | --- |
| > 1000 | 226.3 | O=C(O)C(=O)O.O=C1NCCCN1CCCNCC1CCc2ccccc2O1 (racemic) [Compound 1, (±)-1-[3-[[(3,4-dihydro-2H-1-benzopyran-2-yl)methyl]amino]-propyl]-tetrahydro-2(1H)-pyrimidinone ethanedioate(1:1)] | 23.0 |
| > 1000 | 94.7 | O=C1NCCCN1CCCN(Cc1ccccc1)CC1CCc2ccccc2O1 (racemic) [Compound 13, (±)-1-[3-[[(3,4-dihydro-2H-1-benzopyran-2-yl)methyl](phenylmethyl)amino]propyl]-tetrahydro-2(1H)-pyrimidinone] | 0.4 |
| > 1000 | 217.6 | O=C(O)C(=O)O.S=C1NCCCN1CCCNCC1CCc2ccccc2O1 (racemic) [Compound 14, (±)-1-[3-[[(3,4-dihydro-2H-1-benzopyran-2-yl)-methyl]amino]propyl]tetrahydro-2(1H)-pyrimidinethione ethanedioate(1:1)] |  |
| 590 | 177.5 | N#CN=C1NCCCN1CCCNCC1CCc2ccccc2O1 (racemic) [Compound 21, (±)-[1-[3-[[(3,4-dihydro-2H-1-benzopyran-2-yl)-methyl]-amino]propyl]hexahydro-2-pyrimidinylidene]cyanamide ethanedioate (1:1)] |  |
| > 1000 |  | NC(=O)Nc1nccn1C1CCN(CC2CCc3ccccc3O2)CC1 (racemic) [Compound 66, (±)-[1-[1-[(3,4-dihydro-2H-1-benzopyran-2-yl)methyl]-4-piperidinyl]-1H-imidazol-2-yl]urea] |  |
